Laboratory results taken from paper PMC9376946, “Peptide-RNA Coacervates as a Cradle for the Evolution of Folded Domains” (Journal of the American Chemical Society, 2022).
Values joined by “and” are separate entries in the source; they are usually repeats but may differ in a detail not shown here. Equal values may be shown once.

System: polyU
Test: DEER of peptides in the presence of polyU
Format: binding
Conditions: for local concentration of detected spins: from DEER background decay, calibration curve
Protocol: For pulse EPR measurements, 5–6 μL of peptide in D2O with 20% glycerol-d8 was introduced into a quartz capillary of 0.9 mm i.d. and 1.1 mm o.d. and sealed with Critoseal at one end. The samples with polyU (and thus, the potential for coacervates) were flash-frozen in liquid nitrogen after incubating at room temperature for 15–20 min. Samples without polyU were directly inserted into the spectrometer at 25 K.
Pulse EPR measurements were carried out at the W band (94.9 GHz) on a home-built spectrometer at 25 K.[22]−[24] Echo intensities were measured with a Hahn echo sequence (π/2νobs – τ – πνobs – τ – echo) using π/2 and π pulses of 20–25 ns and 40–50 ns, respectively, and τ = 500 ns. Echo decays were measured under the same conditions with an initial τ value of 500 ns. DEER measurements were recorded using the four-pulse DEER sequence (π/2νobs – τ1 – πνobs – (τ1 + t) – πνpump – (τ2-t) – πνobs – τ2 – echo)[25],[26] with a chirp pump pulse[23] using eight-step phase cycling and monitoring the echo intensity as a function of increasing t. The maximum intensity of the nitroxide spectrum was set to 94.9 GHz, the observer pulses were set to 94.85 GHz, and the π/2 and π pulse durations were 35–40 and 70–80 ns. The chirp pump pulse frequency was 94.88–94.98 GHz with a duration of 128 ns. The repetition time was 10 ms. The samples without polyU and a concentration above 50 μM were averaged for 1–5 h. All the samples with a concentration ≤50 μM and all the samples in the presence of polyU were averaged for 6–14 h. The DEER data were analyzed using the DeerAnalysis 2018[27] program with Tikhonov regularization[28] and also verified with DEERNet.[29] For DeerAnalysis, the background was fitted with a homogenous three-dimensional distribution. The calculated distance distributions were obtained from mtsslSuite[30] using maleimide TEMPO (M-TEMPO) as the ligand, and 200 rotamer conformations were generated using clash treatment set to “loose”.
We carried out DEER measurements on the series of samples with 150 μM PA-12 and varying amounts of polyU (Figure 5A). DEER traces were analyzed in terms of several parameters: (i) the modulation depth, Δ, which gives information about the amount of dimers present; (ii) the slope of the background decay, which gives information on the average local concentration of the observed spins;[36],[40] and (iii) the SNR, which indicates how many spins were observed. […] The decrease in the background decay slope and SNR are consistent with the observed reduction in echo intensity (Figure 4A). We therefore conclude that the observed DEER modulation arose from the unbound PA-12 dimers, whereas the polyU-bound PA-12 could not be detected, as discussed in the description of the echo decays. As the polyU concentration increases, the PA-12 concentration in the dispersed phase decreases and therefore the dimer population decreases as well (eq 1), ultimately resulting in the disappearance of the modulation at about 0.5 mg/mL polyU.
We summarized our experimental observations in Figure 5B, where we plot the decrease degree (in %) in the background decay, the echo intensity, and the modulation depth as a function of polyU concentration. For all parameters, the graphs show a similar linear behavior in the high PA/polyU regime below 0.5 mg/mL polyU. […] At 0.5 mg/mL polyU, an inflection point is detected: Above 0.5 mg/mL polyU, population II reaches a plateau and we have a small gain in echo intensity and background decay, but a large gain in modulation depth. From this series of experiments, we conclude that PA bound to polyU has restricted motion and that dimers of PA exist also when bound to polyU within the coacervate. We determined the local concentration of the spins contributing to the DEER traces in the PA/polyU mixtures from a calibration curve generated from the background decay slopes of the DEER data of PA-12 in the absence of polyU (Figure S10D), and the results are given in Table 2. […]

RIRRASVEELTCVPGIGPRLARRILERLA [PA-12, Precursor-Arg peptide in which position 12 has been modified with a cysteine and attached to an M-TEMPO spin label]
maximum modulation depth corrected for free PA (30 μM PA-12, 1 mg/mL polyU, corrected for 40% component I): 9.5%
DEER modulation depth (Δ) with polyU (30 μM PA-12, 1 mg/mL polyU, local concentration 25 μM): 5.7%
DEER modulation depth with polyU (in words) (100 μM PA-12, 2 mg/mL polyU): higher modulation depth than the sample with 1 mg/mL polyU
DEER modulation with polyU (in words) (150 μM PA-12, 0.5 mg/mL polyU): modulation could no longer be detected
DEER modulation depth (Δ) with polyU (150 μM PA-12, 1 mg/mL polyU): 2%
DEER modulation with polyU (in words) (150 μM PA-12, 1 mg/mL polyU): modulation reappeared again
local concentration of detected spins (PA-12 30 μM / polyU 1 mg/mL): 25 µM and 25 ± 2 µM
local concentration of detected spins (PA-12 100 μM / polyU 1 mg/mL): 48 ± 4.5 µM
local concentration of detected spins (PA-12 100 μM / polyU 2 mg/mL): 53 ± 5 µM
local concentration of detected spins (PA-12 150 μM / polyU 0.1 mg/mL): 91 ± 8 µM
local concentration of detected spins (PA-12 150 μM / polyU 0.2 mg/mL): 75 ± 7 µM
local concentration of detected spins (PA-12 150 μM / polyU 0.35 mg/mL): 45 ± 4 µM
local concentration of detected spins (PA-12 150 μM / polyU 0.5 mg/mL): 2.3 µM and 2.3 ± 2 µM
local concentration of detected spins (PA-12 150 μM / polyU 1 mg/mL): 23 µM and 23 ± 2 µM
